Measured values taken from patent US20050009103A1, “Methods of precise molecular-level determination of ligand-receptor interactions and designing selective drug compounds based on said interactions” (priority 2003, published 2005).
Where two headings read alike, the source gives them in different places.

Key:
[1] = tested on: Mouse muscle embryonic nAChR, Tah α150 (ester carbonyl of Trp α149), Leu9′Ser mutation in M2 of the β subunit; format: cell-based
Protocol: (§1) Unnatural amino acids were incorporated into the nAChR using in vivo nonsense suppression methods, and mutant receptors were evaluated electrophysiologically (Dougherty, D. A. (2000) Curr. Opin. Chem. Biol. 4:645-652).
(§2) In studies of weak agonists and/or receptors with diminished binding capability, it is necessary to introduce another mutation that independently decreases EC50. This was accomplished via a Leu-to-Ser mutation in the β subunit at a site known as 9′ in the M2 transmembrane region of the receptor. This M2-β9′ site is almost 50 Å from the binding site, and previous work has shown that a Leu9′Ser mutation lowers the EC50 by a factor of roughly 10 without altering trends in EC50 values (Beene, D. L., et al. (2002) Biochem. 41:10262-9; and Kearney, P. C., et al. (1996) Mil. Pharmacol. 50:1401-1412). […] It is important to note that the EC50 value is not a binding constant, but a composite of equilibria for both binding and gating.
(§3) To evaluate this possibility, the backbone amide at this position was converted to an ester by replacing Thr α150 with the analog α-hydroxy threonine (Tah) using the nonsense suppression methodology (FIG. 9a). Converting an amide carbonyl to an ester carbonyl weakens the hydrogen bonding ability of the oxygen, an effect that has been estimated to be worth ˜[…] (Koh, J. T., et al. (1997) Biochem. 36:11314-22).
(§4) Stage VI oocytes of Xenopus laevis were employed. Oocyte recordings were made 24 to 48 h post injection in two-electrode voltage clamp mode using the OpusXpress™ 6000A (Axon Instruments, Union City, Calif.). Oocytes were superfused with Ca^2+-free ND96 solution at flow rates of 1 ml/min, 4 ml/min during drug application and 3 ml/min during wash. Holding potentials were −60 mV. Data were sampled at 125 Hz and filtered at 50 Hz. Drug applications were 15 s in duration. […] All drugs were prepared in sterile ddi water for dilution into calcium-free ND96. Dose-response data were obtained for a minimum of 10 concentrations of agonists and for a minimum of 7 cells. Dose-response relations were fitted to the Hill equation to determine EC50 and Hill coefficient. EC50 for individual oocytes were averaged to obtain the reported values.
(§5) Synthetic amino acids and α-hydroxy acids were conjugated to the dinucleotide dCA and ligated to truncated 74 nt tRNA as previously described in England, P. M., et al. (1999) supra; and Nowak, M. W., et al. (1998) Methods Enzymol. 293:504-529. Deprotection of amino acyl tRNA was carried out by photolysis immediately prior to co-injection with mRNA, as described in Nowak M. W., et al. (1998) supra; and Li, L. T., et al. (2001) Chem. Biol. 8:47-58. Typically, 25 ng of tRNA were injected per oocyte along with mRNA in a total volume of 50 nl/cell. mRNA was prepared by in vitro runoff transcription using the Ambion (Austin, Tex.) mMessage mMachine kit. Mutation to the amber stop codon at the site of interest was accomplished by standard means and was verified by sequencing through both strands. For nAChR suppression, a total of 4.0 ng of mRNA was injected in the subunit ratio of 10:1:1:1 α:β:γ:δ. In all cases, the β subunit contained a Leu9′Ser mutation, as discussed above. Mouse muscle embryonic nAChR in the pAMV vector was used. In addition, the α subunits contain an HA epitope in the M3-M4 cytoplasmic loop for biochemical studies. […] As a negative control for suppression, truncated 74 nt or truncated tRNA ligated to dCA was co-injected with mRNA in the same manner as fully charged tRNA. […] The positive control for suppression involved wild-type recovery by co-injection with 74 nt tRNA ligated to dCA-Thr or dCA-Trp.

[2] = tested on: Mouse muscle embryonic nAChR, 4,5,6,7-F4-Trp at α149, Leu9′Ser mutation in M2 of the β subunit; test: Two-electrode voltage clamp of Xenopus oocytes expressing nAChR, F4-Trp at α149; format: cell-based
Protocol: as §1, §2
Stage VI oocytes of Xenopus laevis were employed. Oocyte recordings were made 24 to 48 h post injection in two-electrode voltage clamp mode using the OpusXpress™ 6000A (Axon Instruments, Union City, Calif.). Oocytes were superfused with Ca^2+-free ND96 solution at flow rates of 1 ml/min, 4 ml/min during drug application and 3 ml/min during wash. Holding potentials were −60 mV. Data were sampled at 125 Hz and filtered at 50 Hz. […]

[3] = target: Mouse muscle embryonic nAChR, Thr α150, Leu9′Ser mutation in M2 of the β subunit (Mus musculus, UniProt P02716+P04756+P04760+P09690, L285S); test: cell-based
Sequence of Mouse muscle embryonic nAChR, Thr α150, Leu9′Ser mutation in M2 of the β subunit (P04756 21-457): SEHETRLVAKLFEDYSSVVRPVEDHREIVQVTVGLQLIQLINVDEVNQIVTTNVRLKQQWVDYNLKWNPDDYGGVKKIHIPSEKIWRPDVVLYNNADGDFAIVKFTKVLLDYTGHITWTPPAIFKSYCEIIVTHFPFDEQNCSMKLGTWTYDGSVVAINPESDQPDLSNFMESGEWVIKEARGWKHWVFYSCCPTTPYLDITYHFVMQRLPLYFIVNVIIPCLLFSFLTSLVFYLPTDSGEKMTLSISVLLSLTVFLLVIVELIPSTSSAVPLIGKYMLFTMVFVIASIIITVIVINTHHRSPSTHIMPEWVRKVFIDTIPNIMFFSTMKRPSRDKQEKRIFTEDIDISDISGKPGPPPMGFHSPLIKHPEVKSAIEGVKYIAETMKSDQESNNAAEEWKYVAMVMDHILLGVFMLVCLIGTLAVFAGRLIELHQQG
Sequence of Mouse muscle embryonic nAChR, Thr α150, Leu9′Ser mutation in M2 of the β subunit (P09690 24-501 L285S): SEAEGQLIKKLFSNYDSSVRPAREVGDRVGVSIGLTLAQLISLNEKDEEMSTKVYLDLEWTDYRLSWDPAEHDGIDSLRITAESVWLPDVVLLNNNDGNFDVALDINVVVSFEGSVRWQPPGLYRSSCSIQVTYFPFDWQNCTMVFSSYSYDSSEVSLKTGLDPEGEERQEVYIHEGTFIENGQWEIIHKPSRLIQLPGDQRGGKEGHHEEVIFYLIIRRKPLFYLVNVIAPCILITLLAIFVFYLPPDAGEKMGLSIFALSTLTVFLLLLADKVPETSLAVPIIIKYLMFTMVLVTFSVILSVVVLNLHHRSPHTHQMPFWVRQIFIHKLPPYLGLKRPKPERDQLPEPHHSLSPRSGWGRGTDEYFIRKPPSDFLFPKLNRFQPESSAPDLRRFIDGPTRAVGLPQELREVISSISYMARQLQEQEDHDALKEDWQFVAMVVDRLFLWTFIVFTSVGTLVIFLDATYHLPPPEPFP
Sequence of Mouse muscle embryonic nAChR, Thr α150, Leu9′Ser mutation in M2 of the β subunit (P04760 23-519): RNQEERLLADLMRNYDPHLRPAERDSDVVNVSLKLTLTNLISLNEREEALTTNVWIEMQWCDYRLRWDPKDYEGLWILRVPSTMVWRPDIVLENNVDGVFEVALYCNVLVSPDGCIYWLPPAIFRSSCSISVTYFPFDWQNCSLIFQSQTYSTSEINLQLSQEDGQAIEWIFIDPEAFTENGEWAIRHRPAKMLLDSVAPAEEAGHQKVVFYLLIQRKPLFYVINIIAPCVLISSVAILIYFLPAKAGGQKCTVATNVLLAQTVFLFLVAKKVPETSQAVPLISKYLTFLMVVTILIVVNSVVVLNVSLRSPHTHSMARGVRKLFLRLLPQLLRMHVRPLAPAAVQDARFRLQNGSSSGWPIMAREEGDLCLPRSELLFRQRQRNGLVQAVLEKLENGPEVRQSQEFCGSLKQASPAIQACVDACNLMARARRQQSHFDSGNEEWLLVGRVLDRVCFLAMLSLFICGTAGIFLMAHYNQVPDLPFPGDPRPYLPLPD
Sequence of Mouse muscle embryonic nAChR, Thr α150, Leu9′Ser mutation in M2 of the β subunit (P02716 25-520): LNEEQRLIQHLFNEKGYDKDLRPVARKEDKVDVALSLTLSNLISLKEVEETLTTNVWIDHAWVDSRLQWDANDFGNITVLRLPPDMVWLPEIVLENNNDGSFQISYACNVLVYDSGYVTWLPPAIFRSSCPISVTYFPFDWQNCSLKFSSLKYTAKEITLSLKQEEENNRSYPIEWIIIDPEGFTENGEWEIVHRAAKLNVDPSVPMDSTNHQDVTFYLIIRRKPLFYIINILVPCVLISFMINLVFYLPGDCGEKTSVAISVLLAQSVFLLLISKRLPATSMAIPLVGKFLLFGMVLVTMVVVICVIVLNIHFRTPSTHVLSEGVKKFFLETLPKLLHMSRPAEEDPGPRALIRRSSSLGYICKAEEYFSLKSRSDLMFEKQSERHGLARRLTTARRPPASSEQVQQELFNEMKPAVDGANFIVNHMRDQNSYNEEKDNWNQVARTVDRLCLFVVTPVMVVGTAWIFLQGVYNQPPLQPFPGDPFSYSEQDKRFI
Protocol: as §1, §2
as §3, with “36:11314-22). […]” for “36:11314-22).”

[4] = target: T1, Mouse muscle embryonic nAChR, Tah α150 (ester carbonyl of Trp α149), Leu9′Ser mutation in M2 of the β subunit (Mus musculus, UniProt P02716+P04756+P04760); format: cell-based; conditions: read-out: EC50, Tah at α150
T1 construct: other: ± standard error of the mean; backbone ester; β Leu9′Ser; Mouse muscle embryonic nAChR in the pAMV vector was used
T1 sequence (P02716 25-520 limits assumed, change not shown): as the sequence (P02716 25-520) above
T1 sequence (P04756 21-457 limits assumed, change not shown): as the sequence (P04756 21-457) above
T1 sequence (P04760 23-519 limits assumed, change not shown): as the sequence (P04760 23-519) above
Protocol: as §1, §2, §3, §4, §5

Row | SMILES | drop in hydrogen bonding strength ([1]; Tah/Thr ratio multiplied by generic 3.3-fold decrease seen with ACh) [fold] | energy corresponding to drop in hydrogen bonding strength ([1]; from corrected fold change) [kcal/mol] | Epi concentrations required by 4,5,6,7-F4-Trp α149 mutant (dose-response unsuccessful) [2] | EC50 [3] [µM] | EC50 [4] [µM] | Tah/Thr (fold increase in EC50 upon ester substitution) [1] | drop in hydrogen bonding strength [1] [fold] | energy corresponding to drop in hydrogen bonding strength [1] [kcal/mol]
1 | Clc1ccc(C2CC3CCC2N3)cn1 (racemic) [Epi, epibatidine] | ~12 | 1.5 | above 100 μM | – | – | – | – | –
2 | CN1CCCC1c1cccnc1 (centres unmarked) [Nic, nicotine] | – | – | – | 57 ± 2 | 92 ± 4 | 1.6 | ~5 | 1.0
